Laboratory results: patent US8003668B2, “Amino-substituted 8-N-benzimidazoles and methods for their use in blood sugar disorders” (Sanofi-Aventis, priority 2005, dated 2011)

Target: T1, DPP-IV from porcine kidneys (Sus scrofa, UniProt P22411)
T1 construct: DPP-IV from porcine kidneys (Sigma, Munich); purchased Sigma, Munich; host or cells: porcine kidney (tissue-derived enzyme)
Assay: Measurement of the DPP-IV activity (fluorimetric, H-Ala-Pro-AFC substrate)
Format: biochemical
Conditions: inhibitor at 30 μm; H-Ala-Pro-AFC 15 μm; DPP-IV 1 mU/ml; Tris/HCl pH 7.4; room temperature
Protocol: The efficacy of the compounds was tested as follows: • Measurement of the DPP-IV Activity: • Material: • DPP-IV from porcine kidneys (Sigma, Munich) • H-Ala-Pro-AFC (Bachem, Weil am Rhein) • Test conditions: • DPP-IV (1 mU/ml, end concentration) • H-Ala-Pro-AFC (15 μm end concentration) in Tris/HCl (40 mM, pH 7.4), total volume 0.2 ml
The reaction was performed at room temperature for different periods (typically 10 minutes) and stopped at the end of the reaction by adding 20 μl of ZnCl2 (1 M). The conversion of H-Ala-Pro-AFC was determined fluorimetrically by measuring the emission at 535 nm on excitation at 405 nm. In the case of addition of inhibitors, the buffer volume added was adjusted such that a total volume of the test mixture of 200 μl was maintained.
% inhibition at a fixed concentration was calculated as follows: (1−enzyme activityinhibited reaction/enzyme activityuninhibited reaction)×100
IC50 values for inhibitors were determined by varying the inhibitor concentrations at the given substrate concentration of 15 μM. Ki and Km values were determined by corresponding variation of substrate and inhibitor concentration as described (Dixon, M. and Webb, E.C.(1979) Enzymes, third edition, pp. 47-206, Academic Press). […]

T1 sequence (P22411 whole entry): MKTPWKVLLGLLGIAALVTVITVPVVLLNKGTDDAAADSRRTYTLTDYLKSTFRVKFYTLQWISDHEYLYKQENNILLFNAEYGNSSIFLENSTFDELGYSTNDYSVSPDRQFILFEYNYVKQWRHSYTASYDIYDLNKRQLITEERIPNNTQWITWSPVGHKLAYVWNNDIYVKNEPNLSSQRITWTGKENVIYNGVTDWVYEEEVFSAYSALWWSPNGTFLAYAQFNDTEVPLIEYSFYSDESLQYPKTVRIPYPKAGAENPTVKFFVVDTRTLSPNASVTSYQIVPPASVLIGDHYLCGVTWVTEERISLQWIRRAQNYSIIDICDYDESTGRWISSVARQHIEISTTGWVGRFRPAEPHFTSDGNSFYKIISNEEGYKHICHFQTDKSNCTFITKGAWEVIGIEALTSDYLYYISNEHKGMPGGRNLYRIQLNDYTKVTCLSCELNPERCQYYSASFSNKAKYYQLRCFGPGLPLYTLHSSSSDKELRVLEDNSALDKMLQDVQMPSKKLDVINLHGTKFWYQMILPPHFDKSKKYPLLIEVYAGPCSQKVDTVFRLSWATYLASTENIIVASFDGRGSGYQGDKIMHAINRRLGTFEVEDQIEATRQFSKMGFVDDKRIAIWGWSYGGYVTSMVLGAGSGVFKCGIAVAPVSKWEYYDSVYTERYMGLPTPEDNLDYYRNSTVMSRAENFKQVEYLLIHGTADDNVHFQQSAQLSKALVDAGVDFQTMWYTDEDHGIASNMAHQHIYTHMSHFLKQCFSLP

Compound: CC(C)=CCn1c(N2CCC[C@@H](N)C2)nc2ccc(NS(=O)(=O)c3ccccc3)cc21.O=C(O)C(F)(F)F [Example 1, R-N-[2-(3-R-Aminopiperidin-1-yl)-1-(3-methylbut-2-enyl)-1H-benzimidazol-6-yl]-benzenesulfonamide trifluoroacetic acid salt]
- % inhibition at 30 μm: 56%
